Reference: PMC5160925 (Frontiers in Microbiology, 2016)

Assays:
Type in all cases: biochemical
[1] = target: T1, ArgD6803 (N-acetylornithine aminotransferase) (Synechocystis sp. PCC 6803, UniProt P73133); assay: HPLC of PITC derivatives, glutamate formation; details: 1 mM 2-oxoglutarate, 50 mM K-phosphate, pH 9, room temperature, 1 h
T1 construct: gene argD; full ORF, N-terminal His10 tag kept, E. coli DH5alpha, Ni-NTA purified

[2] = target: T2, GadA6803 (glutamate decarboxylase) (Synechocystis sp. PCC 6803, UniProt P73043); assay: HPLC of PITC derivatives, GABA formation; details: 1 mM glutamate, 50 mM K-phosphate, pH 4.5, room temperature, 1 h
T2 construct: gene gad; full ORF, N-terminal His10 tag kept, E. coli DH5alpha, Ni-NTA purified

[3] = target: T3, ArgD7002 (N-acetylornithine aminotransferase) (Picosynechococcus sp. PCC 7002, UniProt B1XNF8); assay: HPLC of PITC derivatives, glutamate formation; details: 1 mM GABA, 1 mM 2-oxoglutarate, 50 mM K-phosphate, pH 9, room temperature, 1 h
T3 construct: gene argD; full ORF, N-terminal His10 tag kept, E. coli DH5alpha, Ni-NTA purified
T3 sequence (B1XNF8 1-418): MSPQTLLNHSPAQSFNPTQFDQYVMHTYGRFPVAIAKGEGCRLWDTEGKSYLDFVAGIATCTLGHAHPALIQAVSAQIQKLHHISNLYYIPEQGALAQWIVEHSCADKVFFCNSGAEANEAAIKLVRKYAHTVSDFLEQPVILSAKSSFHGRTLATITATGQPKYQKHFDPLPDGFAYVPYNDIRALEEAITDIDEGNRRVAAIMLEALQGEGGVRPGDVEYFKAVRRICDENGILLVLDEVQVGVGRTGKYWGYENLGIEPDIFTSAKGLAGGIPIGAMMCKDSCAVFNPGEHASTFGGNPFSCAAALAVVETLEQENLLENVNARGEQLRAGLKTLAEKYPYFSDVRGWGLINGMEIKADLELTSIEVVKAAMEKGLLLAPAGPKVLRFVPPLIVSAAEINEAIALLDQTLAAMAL

NCCC[C@H](N)C(=O)O [L-ornithine]
HPLC of PITC derivatives, glutamate formation ([1]; 1 mM L-ornithine): argD6803 or argD7002 was incubated with L-ornithine and 2-OG, glutamate was produced

N[C@@H](CCC(=O)O)C(=O)O [glutamate]
HPLC of PITC derivatives, GABA formation [2]: this protein catalyzes the conversion of glutamate to GABA

NCCCC(=O)O [GABA]
HPLC of PITC derivatives, glutamate formation [3]: argD6803 or argD7002 was incubated with GABA and 2-oxoglutarate, glutamate was produced
HPLC of PITC derivatives, glutamate formation ([1]; 1 mM GABA): argD6803 or argD7002 was incubated with GABA and 2-oxoglutarate, glutamate was produced
